# Patent US12145927B2 (BRISTOL-MYERS SQUIBB COMPANY, priority 2018, dated 2024)
# Biological target: T1, human IDO1 (Homo sapiens, UniProt P14902)
# T1 construct: expressed in transfected cells
# Test: IDO inhibition assay in human IDO1/HEK293 cells (IDO1 HEK Human)
# Format: cell-based
# Details: HEK293 cells stably expressing human IDO1; 20 hours incubation; absorbance at 490 nm after Ehrlich reagent
# Method: HEK293 cells were transfected with a pCDNA-based mammalian expression vector harboring human IDO1 cDNA (NM 002164.2) by electroporation. They were cultured in medium (DMEM with 10% FBS) containing 1 mg/ml G418 for two weeks. Clones of HEK293 cells that stably expressed human IDO1 protein were selected and expanded for IDO inhibition assay.
# The human IDO1/HEK293 cells were seeded at 10,000 cells per 50 μL per well with RPMI/phenol red free media contains 10% FBS in a 384-well black wall clear bottom tissue culture plate (Matrix Technologies LLC) 100 nL of certain concentration of compound was then added to each well using ECHO liquid handling systems. The cells were incubated for 20 hours in 37° C. incubator with 5% CO2.
# The compound treatments were stopped by adding trichloroacetic acid (Sigma-Aldrich) to a final concentration at 0.2%. The cell plate was further incubated at 50° C. for 30 minute. The equal volume supernatant (20 μL) and 0.2% (w/v) Ehrlich reagent (4-dimethylaminobenzaldehyde, Sigma-Aldrich) in glacial acetic acid were mixed in a new clear bottom 384-well plate. This plate was then incubated at RT for 30 minute. The absorbance at 490 nm was measured on Envision plate reader.
# Compound IC50 values were calculated using the counts of 500 nM of a reference standard treatment as one hundred percent inhibition, and counts of no compound but DMSO treatment as zero percent inhibition.
# T1 sequence (P14902 whole entry): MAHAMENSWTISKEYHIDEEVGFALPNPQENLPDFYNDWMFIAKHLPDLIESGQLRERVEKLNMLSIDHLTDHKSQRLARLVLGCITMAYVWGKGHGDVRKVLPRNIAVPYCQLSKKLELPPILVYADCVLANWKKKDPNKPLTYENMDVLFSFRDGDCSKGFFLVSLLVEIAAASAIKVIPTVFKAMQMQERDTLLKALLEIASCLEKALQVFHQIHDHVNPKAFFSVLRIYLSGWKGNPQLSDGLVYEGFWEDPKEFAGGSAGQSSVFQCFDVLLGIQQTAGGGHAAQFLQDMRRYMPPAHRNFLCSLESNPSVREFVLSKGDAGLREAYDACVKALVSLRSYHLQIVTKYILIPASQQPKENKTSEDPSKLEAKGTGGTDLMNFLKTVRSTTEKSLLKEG
row,Structure (SMILES),IC50 [nM]
1,"Cc1ccc(NC(=O)Nc2cc(-c3ccccc3-c3nnn[nH]3)cc3c2O[C@@H](C)[C@H]3c2ccccc2)cc1 (relative stereo) [Example 113, rel-1-((2R,3R)-5-(2-(2H-tetrazol-5-yl)phenyl)-2-methyl-3-phenyl-2,3-dihydrobenzofuran-7-yl)-3-(p-tolyl)urea]",77
2,"Cc1ccc(NC(=O)Nc2cc(-c3cc(F)ccc3C(=O)O)cc3c2O[C@@H](C)[C@H]3c2ccccc2)cc1 (relative stereo) [Example 114, rel-4-fluoro-2-((2R,3R)-2-methyl-3-phenyl-7-(3-(p-tolyl)ureido)-2,3-dihydrobenzofuran-5-yl)benzoic acid]",1300
3,"Cc1ccc(NC(=O)Nc2cc(-c3ccccc3-c3nnn[nH]3)cc3c2O[C@H](C)[C@H]3c2ccccc2)cc1 (relative stereo) [Example 115, rel-1-((2R,3 S)-5-(2-(1H-tetrazol-5-yl)phenyl)-2-methyl-3-phenyl-2,3-dihydrobenzofuran-7-yl)-3-(p-tolyl)urea]",28
4,"Cc1ccc(NC(=O)Nc2cc(-c3cc(F)ccc3C(=O)O)cc3c2O[C@H](C)[C@H]3c2ccccc2)cc1 (relative stereo) [Example 116, rel-4-fluoro-2-((2R,3S)-2-methyl-3-phenyl-7-(3-(p-tolyl)ureido)-2,3-dihydrobenzofuran-5-yl)benzoic acid]",125
5,"Cc1ccc(NC(=O)Nc2cc(-c3cc(F)ccc3C(=O)O)cc3c2O[C@@H](C)[C@H]3CCC(F)(F)F)cc1 (relative stereo) [Example 117, rel-4-fluoro-2-((2R,3R)-2-methyl-7-(3-(p-tolyl)ureido)-3-(3,3,3-trifluoropropyl)-2,3-dihydrobenzofuran-5-yl)benzoic acid]",2500
6,"Cc1ccc(NC(=O)Nc2cc(-c3ccccc3-c3nnn[nH]3)cc3c2O[C@@H](C)[C@@H]3CCC(F)(F)F)cc1 (relative stereo) [Example 118, rel-1-((2R,3S)-5-(2-(2H-tetrazol-5-yl)phenyl)-2-methyl-3-(3,3,3-trifluoropropyl)-2,3-dihydrobenzofuran-7-yl)-3-(p-tolyl)urea]",23
7,"Cc1ccc(NC(=O)Nc2cc(-c3cc(F)ccc3C(=O)O)cc3c2O[C@@H](C)[C@@H]3CCC(F)(F)F)cc1 (relative stereo) [Example 119, rel-4-fluoro-2-((2R,3S)-2-methyl-7-(3-(p-tolyl)ureido)-3-(3,3,3-trifluoropropyl)-2,3-dihydrobenzofuran-5-yl)benzoic acid]",785
8,"Cc1ccc(NC(=O)Nc2cc(-c3ccccc3-c3nnn[nH]3)cc3c2OCC(O)C(O)C3c2ccccc2)cc1 (single isomer, unassigned) [9 (En. 1), 1-(7-(2-(1H-tetrazol-5-yl)phenyl)-3,4-dihydroxy-5-phenyl-2,3,4,5-tetrahydrobenzo[b]oxepin-9-yl)-3-(p-tolyl)urea]",> 6000
9,"Cc1ccc(NC(=O)Nc2cc(-c3ccccc3-c3nnn[nH]3)cc3c2OCC(O)C(O)C3c2ccccc2)cc1 (single isomer, unassigned) [9 (En. 2), 1-(7-(2-(1H-tetrazol-5-yl)phenyl)-3,4-dihydroxy-5-phenyl-2,3,4,5-tetrahydrobenzo[b]oxepin-9-yl)-3-(p-tolyl)urea]",579
10,"O=C(Nc1ccccc1F)Nc1cc(-c2ccccc2-c2nnn[nH]2)cc2c1OCCCC2c1ccccc1 (single isomer, unassigned) [10 (En.2), 1-(7-(2-(1H-tetrazol-5-yl)phenyl)-5-phenyl-2,3,4,5-tetrahydrobenzo[b]oxepin-9-yl)-3-(2-fluorophenyl)urea]",41.4
11,"O=C(Nc1ccccc1F)Nc1cc(-c2ccccc2-c2nnn[nH]2)cc2c1OCCCC2c1ccccc1 (single isomer, unassigned) [10 (En. 1), 1-(7-(2-(1H-tetrazol-5-yl)phenyl)-5-phenyl-2,3,4,5-tetrahydrobenzo[b]oxepin-9-yl)-3-(2-fluorophenyl)urea]",1450
